{"source": "patent US11773368B2", "about": "“Culture method for differentiating primordial germ cells into functionally mature oocytes” (TOKYO UNIVERSITY OF AGRICULTURE, priority 2015, dated 2023)", "key": {"[1]": {"test_system": "primordial germ cells in gonads from female mouse fetuses at 12.5 dpc", "test": "In vitro organ culture of gonad (secondary follicle formation)", "format": "cell-based", "description": "For the medium of the organ culture, the basal medium supplemented with FBS (Gibco, Thermo Fisher Scientific Inc.), SPS (SAGE In vitro Fertilization), the estrogen receptor antagonist, 7α, 17β-[9-([4,4,5,5,5-pentafluoropentyl]sulfinyl)nonyl]estra-1,3,5(10)-triene-3,17-diol; ICI 182,780 (ICI; Tocris Bioscience), 4-hydroxytamoxifen (Sigma-Aldrich), and MPP (Methylpiperidino pyrazole; Cayman Chemical) were added at the indicated concentrations for each experimental group below. The α-MEM medium (Gibco, Thermo Fisher Scientific Inc.) supplemented with 1.5 mM 2-O-α-d glucopyranosyl-1-ascorbic acid (Tokyo Chemical Industry), 10 units/mL penicillin, and 10 μg/mL streptomycin (Sigma-Aldrich) was used as a basal medium (referred to the basal medium hereafter as α-MEM).\nICI 182,780 and 4-hydroxytamoxifen was prepared as follows. ICI 182,780 and 4-hydroxytamoxifen was diluted to 100 mM using DMSO, and cryopreserved stock was prepared. MPP was diluted to 10 mM using DMSO, and cryopreserved stock was prepared. 1 mM solutions of ICI 182, 780 and 4-hydroxytamoxifen were prepared by diluting the 100 mM stocks 100-fold with DMSO just before use and were added to the medium at the indicated final concentrations for each experimental group. MPP was added to the medium at 1 μM as the final concentration just before use.\nThe gonads for the organ culture were collected with mesonephros or without mesonephros from female mouse fetuses at 12.5 dpc (FIG. 1a). 2.2 ml of the medium was added to each 6-well culture plate used for the organ culture. Transwell®-COL membrane (3.0-μm pore size, 24-mm diameter; Corning) was put on each well of the 6-well culture plate. The gonads were transferred on the membrane and were cultured for 17 days at 37° C. under 5% CO2 and 95% air. Approximately half of the medium in each well was replaced with fresh medium every other day. In the example in which the gonad was cultured with mesonephros, mesonephros was removed from the gonad at day 7 of the organ culture.\nThe in vitro organ culture of the gonads was performed according to the following conditions described below. The gonads were cultured for total 17 days in each conditions below (FIG. 2):\n(i) culture for the complete 17 days period in 10% FBS containing α-MEM (α-MEM+FBS; FBS group);\n(ii) culture for the complete 17 days period in 10% SPS containing α-MEM (α-MEM+SPS; SPS group);\n(iii) culture for the complete 17 days period in 10% KSR containing α-MEM (α-MEM+KSR; KSR group);\n(iv) culture in 10% FBS containing α-MEM for 4 days with a shift to 10% SPS containing α-MEM for 6 days from day 5 and a shift to 10% FBS containing α-MEM until day 17 from day 11 (αMEM+FBS/SPS; FBS/SPS group);\n(v) culture in 10% FBS containing α-MEM for 4 days with a shift to 10% FBS containing α-MEM with the addition of 10 nM, 100 nM, 1 μM, 5 μM, or 10 μM (final concentration) ICI for 6 days from day 5 and a shift to 10% FBS containing α-MEM until day […] (αMEM+FBS/10 nM ICI; FBS/10 nM ICI group, αMEM+FBS/100 nM ICI; FBS/100 nM ICI group, αMEM+FBS/1 μM ICI; FBS/1 μM ICI group, αMEM+FBS/5 μM ICI; FBS/5 μM ICI group, or αMEM+FBS/10 μM ICI; FBS/10 μM ICI group);\n(vi) culture in 10% FBS containing α-MEM for 4 days with a shift to 10% FBS containing α-MEM with the addition of 1 μM (final concentration) 4-hydroxytamoxifen for 6 days from day 5 and a shift to 10% FBS containing α-MEM until day 17 from day 11 (αMEM+FBS/1 μM Tamoxifen; FBS/1 μM Tamoxifen group);\n(vii) culture in 10% FBS containing α-MEM for 4 days with a shift to 10% FBS containing α-MEM with the addition of 1 μM (final concentration) MPP for 6 days from day 5 and a shift to 10% FBS containing α-MEM until day 17 from day 11 (αMEM+FBS/1 μM MPP; FBS/1 μM MPP group).\nVitrification and warming were conducted as follows by reference to Wang, X. et al., “Successful in vitro culture of pre-antral follicles derived from vitrified murine ovarian tissue: oocyte maturation, fertilization, and live births.” Reproduction 141, 183-191 (2011). […]"}, "in vitro-matured eggs": {"test_system": "in vitro-matured eggs", "test": "In vitro fertilization and embryo transfer with in vitro-mature egg", "format": "cell-based, mouse", "description": "After 17 hours of the culture, the eggs with expanded cumulus cells were transferred into TYH medium (LSI Medience Corporation) and fertilized with epididymal sperm. In (ii) SPS group, (iv) FBS/SPS group, (v) FBS/ICI group, about 27 to 58% of eggs which processed for in vitro fertilization (IVF) were normally fertilized. Normally fertilized eggs with 2 pronuclei were cultured in KSOM medium. About 83 to 97% Embryos from the fertilized eggs developed to the 2-cell stage. The embryos developed to the 2-cell stage by the culture were transferred into the oviducts of pseudopregnant females at 0.5 dpc. Offspring were delivered by natural means or by caesarean section at 19.5 dpc. As a result, about 14 to 40% of the transferred embryos developed to offspring. The obtained offspring were raised by foster mothers. The offspring were weaned at about 4 weeks of age. […] As mentioned above, there has been no report that eggs obtained by in vitro culture in which the primordial germ cell was used as the starting material developed to offspring. […] In in vitro culture method for producing the functional egg from the primordial germ cell according to this invention, seven pups from one ovary were obtained at a maximum, and on average, 0.3 to 3.3 pups were obtained from one ovary. Pups were physically normal, and they developed normally. Male and female mice developed from eggs differentiated and matured in in vitro culture could produce the offspring after sexual maturation (Table. 2 and FIG. 12)."}, "[2]": {"settings": "FBS/1 μM ICI group (ICI day 5-11), 19 cultured gonads"}, "[3]": {"settings": "FBS/5 μM ICI group (ICI day 5-11), 6 cultured gonads"}, "[4]": {"settings": "FBS/10 μM ICI group (ICI day 5-11), 6 cultured gonads"}, "[5]": {"settings": "Vitrification FBS/1 μM ICI (vitrified-warmed gonads), 4 cultured gonads"}, "[6]": {"settings": "FBS/1 μM ICI group (ICI day 5-11)"}, "[7]": {"settings": "FBS/5 μM ICI group (ICI day 5-11)"}, "[8]": {"settings": "FBS/10 μM ICI group (ICI day 5-11)"}, "[9]": {"settings": "Vitrification FBS/1 μM ICI (vitrified-warmed gonads)"}}, "note": "Entries after “also recorded” stand apart in the source; their conditions may differ."}
{"smiles": "C[C@]12CC[C@@H]3c4ccc(O)cc4C[C@@H](CCCCCCCCC[S+]([O-])CCCC(F)(F)C(F)(F)F)[C@H]3[C@@H]1CC[C@@H]2O", "note": "(stereo partly drawn) [ICI, 7α, 17β-[9-([4,4,5,5,5-pentafluoropentyl]sulfinyl)nonyl]estra-1,3,5(10)-triene-3,17-diol]", "values": [{"measurement": "follicle morphology of the ovary under an optical microscope", "setting": "[1]; (v) FBS/ICI group, FIG. 3d (10 μM ICI)", "result": "abnormalities were significantly improved"}, {"measurement": "number of the collected secondary follicles", "setting": "[1]; (v) ICI group, 10 nM, 100 nM, 1 μM, 5 μM or 10 μM ICI day 5-11, FIG. 4", "result": "increased depending on the ICI concentration; also recorded: significantly increased compared to FBS group"}, {"measurement": "No. of collected follicles", "setting": "[1]; [2]", "result": 641}, {"measurement": "No. of collected follicles", "setting": "[1]; [3]", "result": 312}, {"measurement": "No. of collected follicles", "setting": "[1]; [4]", "result": 505}, {"measurement": "No. of collected follicles", "setting": "[1]; [5]", "result": 57}, {"measurement": "follicles obtained from one ovary", "setting": "[1]; vitrified and warmed gonads, FBS/1 μM ICI conditions", "result": "about 14"}, {"measurement": "No. of eggs fertilized normally, proportion to the number of collected follicles", "setting": "in vitro-matured eggs; [6]", "result": 26.2, "unit": "%"}, {"measurement": "No. of embryos developed to two-cell, proportion to the number of collected follicles", "setting": "in vitro-matured eggs; [6]", "result": 24.2, "unit": "%"}, {"measurement": "No. of pups developed from embryos, proportion to the number of collected follicles", "setting": "in vitro-matured eggs; [6]", "result": 4.8, "unit": "%"}, {"measurement": "No. of pups from an ovary", "setting": "in vitro-matured eggs; [6]", "result": 1.6}, {"measurement": "No. of eggs fertilized normally", "setting": "in vitro-matured eggs; [2]", "result": 168}, {"measurement": "No. of embryos developed to two-cell", "setting": "in vitro-matured eggs; [2]", "result": 155}, {"measurement": "No. of pups developed from embryos", "setting": "in vitro-matured eggs; [2]", "result": 31}, {"measurement": "No. of eggs fertilized normally, proportion to the number of collected follicles", "setting": "in vitro-matured eggs; [7]", "result": 30.1, "unit": "%"}, {"measurement": "No. of embryos developed to two-cell, proportion to the number of collected follicles", "setting": "in vitro-matured eggs; [7]", "result": 29.2, "unit": "%"}, {"measurement": "No. of pups developed from embryos, proportion to the number of collected follicles", "setting": "in vitro-matured eggs; [7]", "result": 6.4, "unit": "%"}, {"measurement": "No. of pups from an ovary", "setting": "in vitro-matured eggs; [7]", "result": 3.3}, {"measurement": "No. of eggs fertilized normally", "setting": "in vitro-matured eggs; [3]", "result": 94}, {"measurement": "No. of embryos developed to two-cell", "setting": "in vitro-matured eggs; [3]", "result": 91}, {"measurement": "No. of pups developed from embryos", "setting": "in vitro-matured eggs; [3]", "result": 20}, {"measurement": "No. of eggs fertilized normally, proportion to the number of collected follicles", "setting": "in vitro-matured eggs; [8]", "result": 29.3, "unit": "%"}, {"measurement": "No. of embryos developed to two-cell, proportion to the number of collected follicles", "setting": "in vitro-matured eggs; [8]", "result": 27.3, "unit": "%"}, {"measurement": "No. of pups developed from embryos, proportion to the number of collected follicles", "setting": "in vitro-matured eggs; [8]", "result": 3.8, "unit": "%"}, {"measurement": "No. of pups from an ovary", "setting": "in vitro-matured eggs; [8]", "result": 3.2}, {"measurement": "No. of eggs fertilized normally", "setting": "in vitro-matured eggs; [4]", "result": 148}, {"measurement": "No. of embryos developed to two-cell", "setting": "in vitro-matured eggs; [4]", "result": 138}, {"measurement": "No. of pups developed from embryos", "setting": "in vitro-matured eggs; [4]", "result": 19}, {"measurement": "No. of eggs fertilized normally, proportion to the number of collected follicles", "setting": "in vitro-matured eggs; [9]", "result": 33.3, "unit": "%"}, {"measurement": "No. of embryos developed to two-cell, proportion to the number of collected follicles", "setting": "in vitro-matured eggs; [9]", "result": 26.3, "unit": "%"}, {"measurement": "No. of pups developed from embryos, proportion to the number of collected follicles", "setting": "in vitro-matured eggs; [9]", "result": 3.5, "unit": "%"}, {"measurement": "No. of pups from an ovary", "setting": "in vitro-matured eggs; [9]", "result": 0.5}, {"measurement": "No. of eggs fertilized normally", "setting": "in vitro-matured eggs; [5]", "result": 19}, {"measurement": "No. of embryos developed to two-cell", "setting": "in vitro-matured eggs; [5]", "result": 15}, {"measurement": "No. of pups developed from embryos", "setting": "in vitro-matured eggs; [5]", "result": 2}]}
